Values joined by “and” are separate entries in the source; they are usually repeats but may differ in a detail not shown here. Identical values can stand only once.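 These data come from cells grown in 96-well plates and exposed to compound for 48 hours at five concentrations. At the GI50, growth is halved. At the TGI there is no net growth.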
Key:
Assay in all cases: inhibition of tumour cell growth, NCI panel, 48 h
U251 CNS = test system: U251 CNS
NCI-H460 lung = test system: NCI-H460 lung
HT29 colon = test system: HT29 colon
UACC-62 melanoma = test system: UACC-62 melanoma
UACC-257 melanoma = test system: UACC-257 melanoma
SNB-75 CNS = test system: SNB-75 CNS
PC-3 prostate = test system: PC-3 prostate
DU-145 prostate = test system: DU-145 prostate
T-47D breast = test system: T-47D breast
NCI/ADR-RES ovarian = test system: NCI/ADR-RES ovarian

| Structure (SMILES) | TGI (U251 CNS) | TGI (NCI-H460 lung) [µM] | TGI (HT29 colon) | TGI (UACC-62 melanoma) [µM] | TGI (UACC-257 melanoma) [µM] | TGI (SNB-75 CNS) | GI50 (U251 CNS) [µM] | GI50 (PC-3 prostate) [µM] | TGI (PC-3 prostate) [µM] | GI50 (NCI-H460 lung) [µM] | GI50 (HT29 colon) [µM] | GI50 (DU-145 prostate) [µM] | TGI (DU-145 prostate) [µM] | GI50 (SNB-75 CNS) [µM] | GI50 (UACC-62 melanoma) [µM] | GI50 (T-47D breast) [µM] | TGI (T-47D breast) [µM] | GI50 (NCI/ADR-RES ovarian) [µM] | TGI (NCI/ADR-RES ovarian) [µM] | GI50 (UACC-257 melanoma) [µM] |
| --- | --- | --- | --- | --- | --- | --- | --- | --- | --- | --- | --- | --- | --- | --- | --- | --- | --- | --- | --- | --- |
| N#CCC(=O)N1CCCCCCC1 | > 100 µM | > 100 | > 100 µM | > 100 | > 100 |  |  |  |  |  |  |  |  |  |  |  |  |  |  |  |
| O=c1oc2ccccc2c(O)c1C(C/C(CCN1CCCC1)=N\Nc1ccccc1)c1ccccc1 (stereo unspecified) | > 100 µM | > 100 | > 100 µM | > 100 | > 100 | > 100 µM |  |  |  |  |  |  |  |  |  |  |  |  |  |  |
| O=C(CCCCC(=O)N/N=C\c1ccccc1O)N/N=C\c1ccccc1O | > 100 µM | > 100 | > 100 µM | > 100 |  | 20.5 µM | 3.09 | 5.65 | > 100 | 3.14 | > 100 | 5.22 | > 100 | 3.39 | 2.5 |  |  |  |  |  |
| Oc1ccc(N=Nc2ccccn2)c(O)c1 | > 100 µM | > 100 | > 100 µM | 58.2 | > 100 |  | 0.843 | 0.775 | > 100 | 0.543 | 0.434 | 1.55 | > 100 |  | 0.576 | 2.05 | > 100 | 0.503 | > 100 | 3.06 |
| CS(=O)(=O)N(c1cc(-c2ccc3ncnc(Nc4cccc(Cl)c4)c3c2)cnc1Cl)S(C)(=O)=O | 8.07 µM | > 100 | 58.8 µM | 2.21 |  | 0.641 µM | 0.782 | 0.539 | 3.63 | 0.591 | 0.364 | 0.508 | 14.1 | 0.0406 | 0.312 | 0.043 | 0.618 | 1.5 | 12.4 |  |
| NNC(=O)C(=O)N/N=C(\CCC(=O)Nc1ccc(Cl)cc1)Cc1nc2ccccc2s1 | > 100 µM | > 100 | > 100 µM | 54.3 | > 100 | > 100 µM |  |  |  |  |  |  |  |  |  |  |  |  |  |  |
| O=NN(CCCl)C(=O)NC1CCC(CC2CCC(NC(=O)N(CCCl)N=O)CC2)CC1 (stereo unspecified) | 46.2 µM | > 100 | > 100 µM |  | > 100 | 42.5 µM |  |  |  |  |  |  |  |  |  |  |  |  | 77.9 |  |
| COC(=O)c1nn(C(=N)c2ccc(Cl)cc2)c2c1CCC2 | > 100 µM | > 100 | > 100 µM | > 100 | > 100 | > 100 µM |  |  |  |  |  |  |  |  |  |  |  |  |  |  |
| CN1C/C(=C\C=C\c2ccccc2)C(=O)/C(=C/C=C/c2ccccc2)C1 | > 100 µM | > 100 | > 100 µM | > 100 | > 100 | > 100 µM |  |  |  |  |  |  |  |  |  |  |  |  |  |  |
| CCN(CC)CC(=N)N(CC)c1ccccc1 | > 100 µM | > 100 |  | > 100 | > 100 | > 100 µM |  |  |  |  |  |  |  |  |  |  |  |  |  |  |
| COc1ccc(N2C(=O)C3c4[nH]c5ccccc5c4C4CCCCC4C3C2=O)cc1 (stereo unspecified) | 38.6 µM | > 100 | > 100 µM | 33.3 | > 100 | 17.5 µM |  |  |  |  |  |  |  |  |  |  |  |  |  |  |
| [N-]=[N+]=C(C(=O)N1CCCC1=O)S(=O)(=O)c1ccccc1 | > 100 µM | > 100 |  | > 100 | > 100 | > 100 µM |  |  | > 100 |  |  |  | > 100 |  |  |  |  |  | > 100 |  |
| CC(C)=CC(=O)Cc1nc2ccc([N+](=O)[O-])cc2[nH]c1=O |  | > 100 | > 100 µM | > 100 | > 100 | > 100 µM |  |  |  |  |  |  |  |  |  |  |  |  |  |  |
| C[C@@H](Nc1nc(Nc2ccc(F)c(Cl)c2)nc2ccccc12)C1CC1 | 14.5 µM | 19.3 | 11.7 µM | 14.3 |  | 22.3 µM | 3.72 | 2.19 | 8.04 | 3.12 | 2.72 | 7.19 | 20.5 | 4.08 | 2.68 | 2.7 | 14 | 2.3 | 8.52 |  |
| O=C(/C=C\c1cccc2ccccc12)c1cccc2ccccc12 | 24.4 µM |  |  | 27.8 | 29.9 | 18.6 µM | 12 |  |  |  | 4.47 |  |  |  |  |  |  |  |  |  |
| C[C@]12CCC(=O)C=C1CC[C@@H]1C2CC[C@]2(C)c3nn(-c4ccccc4)nc3CC12 (stereo partly specified) | > 100 µM | > 100 | > 100 µM | > 100 | > 100 | > 100 µM |  |  |  |  |  |  |  |  |  |  |  |  |  |  |
| COc1ccc2ccc3oc([N+](=O)[O-])cc3c2c1 | 5.37 µM | 0.405 | 1.89 µM | 0.355 |  | 0.527 µM | 0.277 | 1.08 | 7.9 | 0.114 | 0.202 | 0.123 | 2.14 | 0.166 | 0.157 | 1.83 | > 100 | 0.251 | 2.22 |  |
| C/C=C(/C)C(=O)O[C@H]1[C@H](O)CC(c2ccc3c(c2O)C(O)=C2C(=O)C4(OC)C(O)=C(C(N)=O)C(=O)[C@H](CC(=O)c5ccccc5O)C4CC2[C@@]3(C)OC)O[C@@H]1C (stereo partly specified) | 0.148 µM and 0.117 µM |  | 1.19 µM and 0.255 µM | 0.236 |  | 2.05 µM and 0.705 µM |  |  | 0.187 |  |  |  |  |  |  |  | 8.06 |  |  |  |
| O=C1c2ccccc2C(=O)c2[nH]c(Cc3ccc(F)cc3)nc21 | 47 µM | 31.1 | 30.3 µM | 35.5 | 30.4 | 38.3 µM |  |  |  |  |  |  |  |  |  |  |  |  |  |  |
| O=[N+]([O-])c1cccc2nccc(NCCCO)c12 | 31.3 µM | 24.4 | 74.1 µM | 23.3 | 23.6 | 62.6 µM |  |  | 69.8 |  |  |  | 35.3 |  |  |  | 79.7 |  |  |  |
| CC1(C)C(=O)/C(=C\c2cccnc2)C[C@]2(C)[C@H]3CC[C@@H]4[C@@H](C(=O)/C=C/c5ccncc5)CC[C@@]4(C)[C@]3(C)CC[C@@H]12 | 3.03 µM | 4 | 8.64 µM | 3.46 | 4.44 |  | 1.62 | 1.65 | 4.55 | 1.9 | 2.41 | 1.68 | 3.24 |  | 1.61 | 1.6 | 9.54 | 2.28 | 7.12 | 1.8 |

Source: PubChem BioAssay (NCI)
